We go through one compound from patent publication US20100249138A1, “MPZP: A SMALL MOLECULE CORTICOTROPIN-RELEASING FACTOR TYPE 1 RECEPTOR (CRF1) ANTOGONIST” (priority 2007, published 2010).

The subject of assay [1] is binge drinking of sweetened alcohol. The settings on record: Ji et al. 2007, in review; cited from earlier work.
In a further assay the target is T1, CRF1 receptors (Rattus norvegicus, UniProt P35353).
T1 sequence (P35353 24-415): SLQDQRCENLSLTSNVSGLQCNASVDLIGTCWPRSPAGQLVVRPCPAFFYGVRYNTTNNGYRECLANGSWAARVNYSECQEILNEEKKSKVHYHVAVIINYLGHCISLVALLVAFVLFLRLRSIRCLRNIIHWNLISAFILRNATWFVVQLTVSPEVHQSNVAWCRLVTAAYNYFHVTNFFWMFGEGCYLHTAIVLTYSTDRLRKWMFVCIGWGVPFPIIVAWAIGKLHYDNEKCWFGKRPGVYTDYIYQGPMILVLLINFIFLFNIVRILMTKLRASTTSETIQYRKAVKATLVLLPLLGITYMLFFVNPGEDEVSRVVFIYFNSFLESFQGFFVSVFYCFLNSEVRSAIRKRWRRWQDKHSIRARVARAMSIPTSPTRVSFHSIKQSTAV
The assay can be described thus: CRF receptor autoradiography, rat brain sections, CRF1-rich regions. Type of assay: binding. The arrangement: from tissue. As for the experimental part: (§1) For CRF receptor autoradiography, brain tissue was sectioned coronally (20 μm) using a cryostat (−17° C.). Sections were mounted on Superfrost Plus+ charged glass slides (Fisher Scientific, Pittsburgh, Pa.), permitted to dry completely, and stored in airtight boxes at −80° C. until the day of autoradiography. Autoradiography was performed using standard procedures based on the previous characterization of [^125I]Tyr^0-sauvagine [Grigoriadis et al., Mol. Pharmacol. (1996) 50:679-686].
(§2) Slides containing triplicate adjacent brain sections were thawed to room temperature and permitted to dry completely. Each section then was outlined using a PAP pen (Calbiochem, San Diego, Calif.). Sections were incubated in assay buffer (DPBS with 10 mM MgCl2, 2 mM EGTA, 1 tablet/100 ml protease inhibitor, 0.15% bovine serum albumin) for 15 minutes to remove endogenous ligand. Slides then were incubated under one of four conditions: (1) 0.2 nM […] to determine total binding; (2) 0.2 nM radiolabeled sauvagine+1 μM R121919 (below)
to determine non-CRF1 (e.g., CRF2) receptor binding; (3) 0.2 nM radiolabeled sauvagine+3 μM MPZP to determine non-CRF1 (e.g., CRF2) receptor binding using the experimental compound under study; (4) 0.2 nM radiolabeled sauvagine+0.3 μM unlabeled D-Phe-CRF12-41, a subtype-nonspecific CRF receptor antagonist, to determine non-CRF1/CRF2 (e.g., nonspecific binding). […]

The next assay deals with CRF2 receptors. Briefly: CRF receptor autoradiography, rat brain sections, CRF2-rich regions. Type of assay: binding. As for the experimental part: as §1, §2
to determine non-CRF1 (e.g., CRF2) receptor binding; (3) 0.2 nM radiolabeled sauvagine+3 μM MPZP to determine non-CRF1 (e.g., CRF2) receptor binding using the experimental compound under study; (4) 0.2 nM radiolabeled sauvagine+0.3 μM unlabeled D-Phe-CRF12-41, a subtype-nonspecific CRF receptor antagonist, to determine non-CRF1/CRF2 (e.g., nonspecific binding).
After 2 hours incubation at room temperature, unbound radioligand was removed via a brief dip in ice-cold assay buffer, followed by two 5 minute rinses in ice-cold washing buffer (DPBS with 0.01% Triton-X100) and one brief dip in ice-cold distilled, deionized H2O. Slides then were dried at room temperature and exposed to Kodak Biomax MR film for 2 days. Unlabeled peptides (sauvagine, D-Phe-CRF12-41) were generously provided by Dr. Jean Rivier (The Salk Institute, La Jolla, Calif.). Images were captured using a light box and digital camera computer workstation using a MTI CCDC72 digital camera equipped with a 90 mm Tamron macro lens. […]

Regarding `COCCN(CCOC)c1cc(C)nc2c(-c3ccc(OC)cc3C)c(C)nn12` [MPZP, N,N-bis(2-methoxyethyl)-3-(4-methoxy-2-methylphenyl)-2,5-dimethyl-pyrazolo[1,5-a]pyrimidin-7-amine], in assay [1], the “nondependent binge drinking of sweetened alcohol” value is listed as “had no effect”. For the same compound, the “displacement of [125I]-Tyr0-sauvagine (CRF1-like binding)” value at CRF1 receptors (cerebral cortex, concentration printed 1 mM) is listed as “displaces the majority”. At CRF1 receptors (cortex and basolateral amygdala, 3 μM), the “displacement of [125I]-Tyr0-sauvagine binding from CRF1-rich regions” value was “displaced most”. Besides, the “displacement of [125I]-Tyr0-sauvagine binding from CRF2-rich regions” value in the assay with CRF2 receptors (3 μM, rat lateral septum, ventromedial hypothalamus, choroid plexus, cerebral arterioles) is reported as “did not displace”. The “specificity for CRF2 receptors” value with CRF2 receptors (at up to 1 μM concentrations) is on record as “no measurable specificity”. For the same compound, the “displacement of [125I]-Tyr0-sauvagine binding (CRF2-like binding)” value with CRF2 receptors (rat lateral septum or ventromedial hypothalamus, concentration printed 1 mM) was “does not displace”.
